# Reference: patent US6004957A, “Sulfonamide inhibitors of aspartyl protease” (Vertex Pharmaceuticals, Incorporated, priority 1998, dated 1999)
# Tested on: HIVIIIb in CCRM-CEM cells
# Experiment: Anti-viral potency in CCRM-CEM cells acutely infected with HIVIIIb (method of Meek et al.), extracellular p24 antigen
# Format: cell-based, HIV-1
# Conditions: Human immunodeficiency virus 1, HIV replication, Table VIII, read-out: IC90 Range
# Description: As discussed above, the novel compounds of the present invention are excellent ligands for aspartyl proteases, particularly HIV-1 and HIV-2 proteases. Accordingly, these compounds are capable of targeting and inhibiting late stage events in HIV replication, i.e., the processing of the viral polyproteins by HIV encoded proteases. […] Because aspartyl protease is essential for the production of mature virions, inhibition of that processing effectively blocks the spread of virus by inhibiting the production of infectious virions, particularly from chronically infected cells. […] Other anti-viral assays have confirmed the potency of these compounds.
# Compounds of formula I were tested for their antiviral potency in several virological assays. In the first assay, the compounds were added as a solution in dimethylsulfoxide (DMSO) to a test cell culture of CCRM-CEM cells, a strain of CD4^+ human T-cell lymphoma cells, previously acutely infected with HIVIIIb using standard protocols (see Meek, T. D. et al., "Inhibition of HIV-1 protease in infected T-lymphocytes by synthetic peptide analogues", Nature, 343, p. 90 (1990). Preferred compounds are those which are able to inhibit 90% of viral infectivity at a concentration of 1 μM or less. More preferred compounds are those which are able to inhibit 90% of viral infectivity at a concentration of 100 nM or less.
# The effect of the compounds on inhibiting the replication of the virus was measured by determining the HIV extracellular p24 antigen concentration using a commercial enzyme immunoassay (obtained from Coulter Corporation, Hialeah, Fla.).
row,SMILES,IC90
1,NC(=O)C[C@H](NC(=O)c1ccc2ccccc2n1)C(=O)N[C@@H](Cc1ccccc1)[C@H](O)CN(Cc1ccccc1)S(=O)(=O)c1ccccc1 [Compound 1],1000 to 10000 nM
2,Cc1noc(C)c1S(=O)(=O)N(Cc1ccccc1)C[C@@H](O)[C@H](Cc1ccccc1)NC(=O)[C@H](CC(N)=O)NC(=O)c1ccc2ccccc2n1 [Compound 3],1000 to 10000 nM
3,NC(=O)C[C@H](NC(=O)c1ccc2ccccc2n1)C(=O)N[C@@H](Cc1ccccc1)[C@H](O)CN(Cc1ccccc1)S(=O)(=O)c1cccc(C(F)(F)F)c1 [Compound 4],1000 to 10000 nM
4,CC(=O)Nc1nc(C)c(S(=O)(=O)N(Cc2ccccc2)C[C@@H](O)[C@H](Cc2ccccc2)NC(=O)[C@H](CC(N)=O)NC(=O)c2ccc3ccccc3n2)s1 [Compound 5],101 to 1000 nM
5,"NC(=O)C[C@H](NC(=O)c1ccc2ccccc2n1)C(=O)N[C@@H](Cc1ccccc1)[C@H](O)CN(Cc1ccccc1)S(=O)(=O)c1ccc(-c2ccon2)s1 [Compound 6, (S)-N-1-(1-Benzyl-3-(benzyl-(5-isoxazol-3-yl-thiophene-2-sulfonyl)-amino)-(1S,2 syn)-1-benzyl-2-hydroxy-propyl)-2-((quinoline-2-carbonyl)-amino)-succinamide]",101 to 1000 nM
6,NC(=O)C[C@H](NC(=O)c1ccc2ccccc2n1)C(=O)N[C@@H](Cc1ccccc1)[C@H](O)CN(Cc1ccccc1)S(=O)(=O)c1cccc(C(=O)O)c1 [Compound 7],10000 to 40000 nM
7,"NC(=O)C[C@H](NC(=O)c1ccc2ccccc2n1)C(=O)N[C@@H](Cc1ccccc1)[C@H](O)CN(Cc1ccccc1)S(=O)(=O)c1cccc2nonc12 [Compound 9, (S)-N-1-(3-((Benzo(1,2,5)oxadiazole-4-sulfonyl)-benzyl-amino)-(1S,2 syn)-1-benzyl-2-hydroxy-propyl)-2-((quinoline-2-carbonyl)-amino)-succinamide]",101 to 1000 nM
8,"NC(=O)C[C@H](NC(=O)c1ccc2ccccc2n1)C(=O)N[C@@H](Cc1ccccc1)[C@H](O)CN(Cc1ccccc1)S(=O)(=O)c1cccc(S(N)(=O)=O)c1 [Compound 10, N-1-(1-(S)-Benzyl-3-(benzyl-(3-sulfamoyl-benzenesulfonyl)-amino)-2-(syn)-hydroxy-propyl)-2-((quinoline-2-carbonyl)-amino)-succinamide]",101 to 1000 nM
9,"CC(C)CN(C[C@@H](O)[C@H](Cc1ccccc1)NC(=O)[C@H](CC(N)=O)NC(=O)c1ccc2ccccc2n1)S(=O)(=O)c1cc(S(=O)(=O)c2ccccc2)cs1 [Compound 13, (S)-N-1-(3-((4-Benzenesulfonyl-thiophene-2-sulfonyl)-isobutyl-amino)-(1S,2 syn)-1-benzyl-2-hydroxy-propyl)-2-((quinoline-2-carbonyl)-amino)-succinamide]",< 100 nM
10,"CC(C)CN(C[C@@H](O)[C@H](Cc1ccccc1)NC(=O)[C@H](CC(N)=O)NC(=O)c1ccc2ccccc2n1)S(=O)(=O)c1ccc(F)cc1 [Compound 14, (S)-N-1-(1-(S)-Benzyl-3-((4-fluoro-benzenesulfonyl)-isobutyl-amino)-2-(syn)-hydroxy-propyl)-2-((quinoline-2-carbonyl)-amino)-succinamide]",< 100 nM
11,"CC(=O)Nc1ccc(S(=O)(=O)N(CC(C)C)C[C@@H](O)[C@H](Cc2ccccc2)NC(=O)[C@H](CC(N)=O)NC(=O)c2ccc3ccccc3n2)cc1F [Compound 15, (S)-N-1-(3-((4-Acetylamino-3-fluoro-benzenesulfonyl)-isobutyl-amino)-(1S,2 syn)-1-benzyl-2-hydroxy-propyl)-2-((quinoline-2-carbonyl)-amino)-succinamide]",< 100 nM
12,"CC(=O)Nc1cc(S(=O)(=O)N(CC(C)C)C[C@@H](O)[C@H](Cc2ccccc2)NC(=O)[C@H](CC(N)=O)NC(=O)c2ccc3ccccc3n2)ccc1F [Compound 16, (S)-N-1-(3-((3-Acetylamino-4-fluoro-benzenesulfonyl)-isobutyl-amino)-(1S,2 syn)-1-benzyl-2-hydroxy-propyl)-2-((quinoline-2-carbonyl)-amino)-succinamide]",101 to 1000 nM
13,"CC(=O)Nc1ccc(S(=O)(=O)N(CC(C)C)C[C@@H](O)[C@H](Cc2ccccc2)NC(=O)[C@H](CC(N)=O)NC(=O)c2ccc3ccccc3n2)cc1 [Compound 17, (S)-N-1-(1-(S)-Benzyl-3-((4-acetylamino-benzenesulfonyl)-isobutyl-amino)-2-(syn)-hydroxy-propyl)-2-((quinoline-2-carbonyl)-amino)-succinamide]",101 to 1000 nM
14,CC(=O)Nc1nc(C)c(S(=O)(=O)N(CC(C)C)C[C@@H](O)[C@H](Cc2ccccc2)NC(=O)[C@H](CC(N)=O)NC(=O)c2ccc3ccccc3n2)s1 [Compound 18],101 to 1000 nM
15,"CC(=O)Nc1cccc(S(=O)(=O)N(CC(C)C)C[C@@H](O)[C@H](Cc2ccccc2)NC(=O)[C@H](CC(N)=O)NC(=O)c2ccc3ccccc3n2)c1 [Compound 19, (S)-N-1-(3-((3-Acetylamino-benzenesulfonyl)-isobutyl-amino)-(1S,2 syn)-1-benzyl-2-hydroxy-propyl)-2-((quinoline-2-carbonyl)-amino)-succinamide]",101 to 1000 nM
16,"CC(C)CN(C[C@@H](O)[C@H](Cc1ccccc1)NC(=O)[C@H](CC(N)=O)NC(=O)c1ccc2ccccc2n1)S(=O)(=O)c1cccc2nonc12 [Compound 20, (S)-N-1-(3-((Benzo(1,2,5)oxadiazole-4-sulfonyl)-isobutyl-amino)-(1S,2 syn)-1-benzyl-2-hydroxy-propyl)-2-((quinoline-2-carbonyl)-amino)-succinamide]",< 100 nM
17,"CC(C)CN(C[C@@H](O)[C@H](Cc1ccccc1)NC(=O)[C@H](CC(N)=O)NC(=O)c1ccc2ccccc2n1)S(=O)(=O)N(C)C [Compound 21, N-1-((1S-2 syn)-1-Benzyl-2-hydroxy-3-(1-isobutyl-3,3-dimethylsulfonylurea)-propyl)-2-((quinoline-2-carbonyl)-amino)-succinamide]",< 100 nM

row,SMILES,IC90
1,CC(=O)Nc1ccc(S(=O)(=O)N(CC(C)C)C[C@@H](O)[C@H](Cc2ccccc2)NC(=O)[C@@H](NC(=O)OCc2ccccn2)C(C)C)cc1 [Compound 22],101 to 1000 nM
2,C=CCOC(=O)N[C@@H](Cc1ccccc1)[C@H](O)CN(CC(C)C)S(=O)(=O)c1ccc(NC(C)=O)cc1 [Compound 27],1000 to 10000 nM
3,CC(=O)Nc1ccc(S(=O)(=O)N(CC(C)C)C[C@@H](O)[C@H](Cc2ccccc2)NC(=O)OC(C)C)cc1 [Compound 29],1000 to 10000 nM
4,CC(C)CN(C[C@@H](O)[C@H](Cc1ccccc1)NC(=O)OC(C)(C)C)S(=O)(=O)c1ccc(F)cc1 [Compound 32],1000 to 10000 nM
5,"CC(C)CN(C[C@@H](O)[C@H](Cc1ccccc1)NC(=O)O[C@H]1CCOC1)S(=O)(=O)c1ccc(F)cc1 [Compound 35, 4-Fluoro-N-((2 syn,3S)-2-hydroxy-4-phenyl-3-((S)-tetrahydrofuran-3-yloxycarbonylamino)-butyl)-N-isobutyl-benzenesulfonamide]",101 to 1000 nM
6,"CC(C)CN(C[C@@H](O)[C@H](Cc1ccccc1)NC(=O)O[C@H]1CCOC1)S(=O)(=O)c1ccc(Cl)c(Cl)c1 [Compound 37, 3,4-Dichloro-N-((2 syn,3S)-2-hydroxy-4-phenyl-3-((S)-tetrahydrofuran-3-yloxycarbonylamino)-butyl)-N-isobutyl-benzenesulfonamide]",101 to 1000 nM
7,CC(C)CN(C[C@@H](O)[C@H](Cc1ccccc1)NC(=O)OCc1ccccc1)S(=O)(=O)c1ccc(F)cc1 [Compound 38],1000 to 10000 nM
8,CC(=O)Nc1ccc(S(=O)(=O)N(CC(C)C)C[C@@H](O)[C@H](Cc2ccccc2)NC(=O)OC(C)(C)C)cc1 [Compound 39],1000 to 10000 nM
9,"CC(=O)Nc1ccc(S(=O)(=O)N(CC(C)C)C[C@@H](O)[C@H](Cc2ccccc2)NC(=O)OCc2cccnc2)cc1 [Compound 44, N-(4-(((2 syn,3S)-2-Hydroxy-4-phenyl-3-(pyridin-3-yl-methoxycarbonylamino)-butyl)-isobutyl-sulfamoyl)-phenyl)-acetamide]",101 to 1000 nM
10,CC(C)CN(C[C@@H](O)[C@H](Cc1ccccc1)NC(=O)OC(C)(C)C)S(=O)(=O)c1ccccc1 [Compound 45],1000 to 10000 nM
11,"CC(=O)Nc1ccc(S(=O)(=O)N(CC(C)C)C[C@@H](O)[C@H](Cc2ccccc2)NC(=O)O[C@H]2CCOC2)cc1 [Compound 48, N-(4-(((2 syn,3S)-2-Hydroxy-4-phenyl-3-((S)-tetrahydrofuran-3-yloxycarbonylamino)-butyl)-isobutyl-sulfamoyl)-phenyl)-acetamide]",101 to 1000 nM
12,CC(C)CN(C[C@@H](O)[C@H](Cc1ccccc1)NC(=O)OC(C)(C)C)S(=O)(=O)c1ccc(F)cc1F [Compound 49],1000 to 10000 nM
13,CC(C)CN(C[C@@H](O)[C@H](Cc1ccccc1)NC(=O)O[C@H]1CCOC1)S(=O)(=O)c1ccc(-c2ccccn2)s1 [Compound 51],1000 to 10000 nM
14,CC(=O)Nc1cc(S(=O)(=O)N(CC(C)C)C[C@@H](O)[C@H](Cc2ccccc2)NC(=O)OC(C)(C)C)ccc1F [Compound 54],1000 to 10000 nM
15,CC(C)CN(C[C@@H](O)[C@H](Cc1ccccc1)NC(=O)O[C@H]1CCOC1)S(=O)(=O)c1cccc2nonc12 [Compound 60],1000 to 10000 nM
16,CC(=O)Nc1ccc(S(=O)(=O)N(CC(C)C)C[C@@H](O)[C@H](Cc2ccccc2)NC(=O)OCc2ccccc2)cc1 [Compound 61],1000 to 10000 nM
17,CC(C)CN(C[C@@H](O)[C@H](Cc1ccccc1)NC(=O)OCc1ccccc1)S(=O)(=O)c1ccc(N)c([N+](=O)[O-])c1 [Compound 63],1000 to 10000 nM
